Data: ChEMBL document CHEMBL1201862, “PubChem BioAssay data set” (2004)
The source made the active and inactive calls.

What was measured:
Cytochrome P450 3A4 [1] = molecular target: T1, Cytochrome P450 3A4 (Homo sapiens, UniProt P08684); conditions: Potency
Cytochrome P450 2C9 = Cytochrome P450 2C9 (Homo sapiens, UniProt P11712)
[2] = molecular target: T2, Carboxy-terminal domain RNA polymerase II polypeptide A small phosphatase 1 (Homo sapiens, UniProt Q9GZU7); test: CTDSP1 inhibitors, concentration-response, biochemical, absorbance readout, ultra-high-throughput screen actives (AID 540297); assay type: functional
T2 sequence (Q9GZU7 whole entry): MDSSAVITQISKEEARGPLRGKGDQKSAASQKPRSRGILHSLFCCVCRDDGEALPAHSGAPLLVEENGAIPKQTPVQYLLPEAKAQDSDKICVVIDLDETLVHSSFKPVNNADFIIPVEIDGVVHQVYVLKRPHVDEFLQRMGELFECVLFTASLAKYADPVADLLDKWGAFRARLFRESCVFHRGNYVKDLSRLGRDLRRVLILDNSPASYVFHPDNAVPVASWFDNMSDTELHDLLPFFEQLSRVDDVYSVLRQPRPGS

Fatty acid synthase [3] = molecular target: T3, Fatty acid synthase (Homo sapiens, UniProt P49327); test: inhibition of human FAS-TE enzyme activity – biochemical, kinetic fluorescence intensity, dose response (AID 624326); assay type: functional;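 also: rate of fluorescence rise from hydrolysis of a fluorogenic O-methyl fluorescein ester substrate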
Nonstructural protein 1 = Nonstructural protein 1 (Influenza A virus, UniProt Q194T2); assay type: functional, Influenza A virus (A/California/07/2009(H1N1))
Fatty acid synthase [4] = molecular target: T3, Fatty acid synthase; test: inhibition of human FAS-TE enzyme activity – biochemical, endpoint fluorescence intensity, uHTS hits, dose response (AID 624327); assay type: functional;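 also: fluorescence from hydrolysis of an O-methyl fluorescein acyl ester substrate by the enzyme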
[5] = P. falciparum Dd2 growth inhibitors, dose response, SYBR Green, cherry-picked samples (AID 1159567); assay type: functional, cell-based
[6] = toxicity to human HepG2 hepatoma cells – cell-based, plate reader, dry powder samples, cytotoxicity control, dose response (AID 1159569); assay type: functional;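 also: inhibitor potency with signal falling toward the positive control level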
[7] = growth inhibition of PfATP4-mutant resistant parasites – NITD609-resistant line, SYBR Green, dry powder, dose response (AID 1159571); assay type: functional, cell-based;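 also: parasites synchronized at ring stage by sorbitol before testing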
Paired box protein Pax-8 = Paired box protein Pax-8 (Homo sapiens, UniProt Q06710); test: PAX8 transcriptional activity inhibition in RMG-I – RMG-I cells, luciferase, cherry-pick, dose response (AID 687027); assay type: functional, cell-based;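 also: luciferase reporter driven by Pax8 target thyroperoxidase promoter measured by SteadyGlo luminescence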
[8] = Dd2 malaria parasite growth inhibition potency – SYBR Green, dry powder samples, dose response (AID 1159566); assay type: functional, cell-based;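 also: potency for growth inhibition with lower SYBR green DNA signal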
[9] = OVCAR8 cell viability loss – plate reader, dry powder samples, PAX8 project, dose response (AID 743197); assay type: functional, cell-based; conditions: OVCAR-8
[10] = growth inhibition of yeast DHODH-expressing 3D7 parasites – SYBR Green, dry powder samples, dose response (AID 1159570); assay type: functional, cell-based;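 also: parasite growth measured after 72 hours of compound exposure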
[11] = viability of HCT116 lacking mutant beta-catenin – cell-based, human colon tumor, dose response (AID 1045); assay type: functional;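 also: HCT116 colon tumor cells with beta catenin knocked out; cells exposed to compound for 60 hours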
[12] = viability loss in THP-1 monocytes – THP-1 cells, cytotoxicity control for Vif-APOBEC3G degradation inhibitor project, dose response (AID 1117359); assay type: functional; conditions: THP-1
[13] = molecular target: Induced myeloid leukemia cell differentiation protein Mcl-1 (Homo sapiens, UniProt Q07820); assay type: functional
cells [14] = assay type: functional, cell-based
cells [15] = assay type: functional, cell-based; remark: listed apart in the source
Estrogen receptor = molecular target: T4, Estrogen receptor (Homo sapiens, UniProt P03372);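 also: potency for inhibiting coactivator peptide recruitment to the receptor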
T4 sequence (P03372 whole entry): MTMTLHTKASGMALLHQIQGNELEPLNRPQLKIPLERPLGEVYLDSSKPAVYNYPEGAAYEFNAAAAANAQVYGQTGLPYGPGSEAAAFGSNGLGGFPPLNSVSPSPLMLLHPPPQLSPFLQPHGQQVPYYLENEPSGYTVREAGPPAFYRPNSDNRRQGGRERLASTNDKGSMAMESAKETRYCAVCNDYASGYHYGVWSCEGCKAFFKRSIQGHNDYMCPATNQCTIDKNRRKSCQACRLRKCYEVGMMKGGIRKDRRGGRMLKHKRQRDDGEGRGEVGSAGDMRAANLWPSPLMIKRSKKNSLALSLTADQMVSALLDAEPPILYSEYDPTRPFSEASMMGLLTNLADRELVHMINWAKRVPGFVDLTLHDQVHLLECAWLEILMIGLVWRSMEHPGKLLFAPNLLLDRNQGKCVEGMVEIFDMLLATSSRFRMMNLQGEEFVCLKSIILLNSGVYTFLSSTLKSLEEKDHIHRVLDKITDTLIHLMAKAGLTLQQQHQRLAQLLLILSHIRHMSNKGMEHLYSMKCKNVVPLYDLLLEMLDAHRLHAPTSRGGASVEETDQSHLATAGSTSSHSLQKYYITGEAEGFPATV

[16] = blockers of HIV-1 envelope-mediated cell-cell fusion – cherry-pick, dose response (AID 652057); assay type: functional, cell-based
[17] = off-target signal loss in HeLa-CEM21 co-culture – HeLa F-luc CTL cells, cherry-picked, counter-screen for HIV-1 Env fusion inhibitor project, dose response (AID 652040); assay type: functional, cell-based;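 also: potency for signal decrease marking cytotoxic or nonspecific inhibition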
[18] = blockers of HIV-1 ZM109 envelope-driven cell-cell fusion – HeLa effector, CEM target cells, luciferase, cherry-pick, dose response (AID 652058); assay type: functional, cell-based;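 also: luciferase signal from HIV-1 Env mediated cell-cell fusion of effector and target cells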
[19] = HIV-1 AD8 envelope cell-cell fusion blockers – cherry-pick, dose response (AID 652062); assay type: functional, cell-based;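 also: luciferase signal from cell-cell fusion driven by HIV-1 clade B AD8 Env; potency is for inhibitors of fusion seen as a drop in luminescence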
[20] = blockade of melanocortin 4 receptor signaling – cell-based, plate reader, cherry pick, counter-screen for LGR2 antagonist project, dose response (AID 743444); assay type: functional;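 also: transfected HEK 293 cells stimulated with alpha-MSH peptide; potency of inhibitors of the alpha-MSH evoked signal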
[21] = blockers of bursicon-stimulated LGR2 cAMP reporter – cell-based, HEK293, CRE-luciferase reporter, cherry pick, set 2, dose response (AID 743343); assay type: functional;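 also: transfected cells were stimulated with diluted bursicon conditioned medium after compound addition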
Cytochrome P450 2C19 = Cytochrome P450 2C19 (Homo sapiens, UniProt P33261); test: Cytochrome panel assay with activity outcomes. Panel member name: p450-cyp2c19 Compounds with AC50 equal or less than 10 uM are considered active; assay type: functional; conditions: read-out: AC50
Cytochrome P450 3A4 [22] = molecular target: T1, Cytochrome P450 3A4
Cytochrome P450 1A2 = molecular target: T5, Cytochrome P450 1A2 (Homo sapiens, UniProt P05177);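 also: PubChem cytochrome P450 panel assay, CYP1A2 panel member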
T5 sequence (P05177 whole entry): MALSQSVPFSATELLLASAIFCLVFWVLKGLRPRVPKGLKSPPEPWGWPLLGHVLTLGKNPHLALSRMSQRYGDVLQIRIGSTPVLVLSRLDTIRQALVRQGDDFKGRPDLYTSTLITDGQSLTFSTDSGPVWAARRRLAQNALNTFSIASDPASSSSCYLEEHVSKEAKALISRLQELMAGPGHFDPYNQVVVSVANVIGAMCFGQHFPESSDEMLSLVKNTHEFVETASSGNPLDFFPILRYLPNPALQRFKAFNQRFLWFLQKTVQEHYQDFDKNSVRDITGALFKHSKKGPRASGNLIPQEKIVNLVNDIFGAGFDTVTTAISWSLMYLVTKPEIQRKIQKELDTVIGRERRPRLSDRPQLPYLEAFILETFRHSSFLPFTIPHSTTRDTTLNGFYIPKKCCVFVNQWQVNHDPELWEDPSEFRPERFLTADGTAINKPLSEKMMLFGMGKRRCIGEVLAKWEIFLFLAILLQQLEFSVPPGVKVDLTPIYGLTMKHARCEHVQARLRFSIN

[23] = A cytotoxicity screen of small molecule inhibitors of the PhoP region in Salmonella typhi identified in the primary screen. [Related pubchem assays: 1850, 1864, 1985 ]; assay type: functional

Paired box protein Pax-8, sequence (Q06710 whole entry): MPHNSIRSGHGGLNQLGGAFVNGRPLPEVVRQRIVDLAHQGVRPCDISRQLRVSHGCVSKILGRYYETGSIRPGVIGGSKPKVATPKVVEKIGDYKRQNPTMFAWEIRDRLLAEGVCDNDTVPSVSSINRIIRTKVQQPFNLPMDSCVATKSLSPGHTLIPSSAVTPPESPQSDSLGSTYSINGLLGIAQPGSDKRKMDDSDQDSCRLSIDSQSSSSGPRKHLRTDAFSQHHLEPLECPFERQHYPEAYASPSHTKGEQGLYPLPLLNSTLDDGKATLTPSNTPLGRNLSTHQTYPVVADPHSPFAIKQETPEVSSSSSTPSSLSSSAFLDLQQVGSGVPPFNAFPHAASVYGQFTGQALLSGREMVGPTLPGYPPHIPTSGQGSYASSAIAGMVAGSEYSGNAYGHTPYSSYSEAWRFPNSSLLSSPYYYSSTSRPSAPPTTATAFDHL
T3 sequence (P49327 whole entry): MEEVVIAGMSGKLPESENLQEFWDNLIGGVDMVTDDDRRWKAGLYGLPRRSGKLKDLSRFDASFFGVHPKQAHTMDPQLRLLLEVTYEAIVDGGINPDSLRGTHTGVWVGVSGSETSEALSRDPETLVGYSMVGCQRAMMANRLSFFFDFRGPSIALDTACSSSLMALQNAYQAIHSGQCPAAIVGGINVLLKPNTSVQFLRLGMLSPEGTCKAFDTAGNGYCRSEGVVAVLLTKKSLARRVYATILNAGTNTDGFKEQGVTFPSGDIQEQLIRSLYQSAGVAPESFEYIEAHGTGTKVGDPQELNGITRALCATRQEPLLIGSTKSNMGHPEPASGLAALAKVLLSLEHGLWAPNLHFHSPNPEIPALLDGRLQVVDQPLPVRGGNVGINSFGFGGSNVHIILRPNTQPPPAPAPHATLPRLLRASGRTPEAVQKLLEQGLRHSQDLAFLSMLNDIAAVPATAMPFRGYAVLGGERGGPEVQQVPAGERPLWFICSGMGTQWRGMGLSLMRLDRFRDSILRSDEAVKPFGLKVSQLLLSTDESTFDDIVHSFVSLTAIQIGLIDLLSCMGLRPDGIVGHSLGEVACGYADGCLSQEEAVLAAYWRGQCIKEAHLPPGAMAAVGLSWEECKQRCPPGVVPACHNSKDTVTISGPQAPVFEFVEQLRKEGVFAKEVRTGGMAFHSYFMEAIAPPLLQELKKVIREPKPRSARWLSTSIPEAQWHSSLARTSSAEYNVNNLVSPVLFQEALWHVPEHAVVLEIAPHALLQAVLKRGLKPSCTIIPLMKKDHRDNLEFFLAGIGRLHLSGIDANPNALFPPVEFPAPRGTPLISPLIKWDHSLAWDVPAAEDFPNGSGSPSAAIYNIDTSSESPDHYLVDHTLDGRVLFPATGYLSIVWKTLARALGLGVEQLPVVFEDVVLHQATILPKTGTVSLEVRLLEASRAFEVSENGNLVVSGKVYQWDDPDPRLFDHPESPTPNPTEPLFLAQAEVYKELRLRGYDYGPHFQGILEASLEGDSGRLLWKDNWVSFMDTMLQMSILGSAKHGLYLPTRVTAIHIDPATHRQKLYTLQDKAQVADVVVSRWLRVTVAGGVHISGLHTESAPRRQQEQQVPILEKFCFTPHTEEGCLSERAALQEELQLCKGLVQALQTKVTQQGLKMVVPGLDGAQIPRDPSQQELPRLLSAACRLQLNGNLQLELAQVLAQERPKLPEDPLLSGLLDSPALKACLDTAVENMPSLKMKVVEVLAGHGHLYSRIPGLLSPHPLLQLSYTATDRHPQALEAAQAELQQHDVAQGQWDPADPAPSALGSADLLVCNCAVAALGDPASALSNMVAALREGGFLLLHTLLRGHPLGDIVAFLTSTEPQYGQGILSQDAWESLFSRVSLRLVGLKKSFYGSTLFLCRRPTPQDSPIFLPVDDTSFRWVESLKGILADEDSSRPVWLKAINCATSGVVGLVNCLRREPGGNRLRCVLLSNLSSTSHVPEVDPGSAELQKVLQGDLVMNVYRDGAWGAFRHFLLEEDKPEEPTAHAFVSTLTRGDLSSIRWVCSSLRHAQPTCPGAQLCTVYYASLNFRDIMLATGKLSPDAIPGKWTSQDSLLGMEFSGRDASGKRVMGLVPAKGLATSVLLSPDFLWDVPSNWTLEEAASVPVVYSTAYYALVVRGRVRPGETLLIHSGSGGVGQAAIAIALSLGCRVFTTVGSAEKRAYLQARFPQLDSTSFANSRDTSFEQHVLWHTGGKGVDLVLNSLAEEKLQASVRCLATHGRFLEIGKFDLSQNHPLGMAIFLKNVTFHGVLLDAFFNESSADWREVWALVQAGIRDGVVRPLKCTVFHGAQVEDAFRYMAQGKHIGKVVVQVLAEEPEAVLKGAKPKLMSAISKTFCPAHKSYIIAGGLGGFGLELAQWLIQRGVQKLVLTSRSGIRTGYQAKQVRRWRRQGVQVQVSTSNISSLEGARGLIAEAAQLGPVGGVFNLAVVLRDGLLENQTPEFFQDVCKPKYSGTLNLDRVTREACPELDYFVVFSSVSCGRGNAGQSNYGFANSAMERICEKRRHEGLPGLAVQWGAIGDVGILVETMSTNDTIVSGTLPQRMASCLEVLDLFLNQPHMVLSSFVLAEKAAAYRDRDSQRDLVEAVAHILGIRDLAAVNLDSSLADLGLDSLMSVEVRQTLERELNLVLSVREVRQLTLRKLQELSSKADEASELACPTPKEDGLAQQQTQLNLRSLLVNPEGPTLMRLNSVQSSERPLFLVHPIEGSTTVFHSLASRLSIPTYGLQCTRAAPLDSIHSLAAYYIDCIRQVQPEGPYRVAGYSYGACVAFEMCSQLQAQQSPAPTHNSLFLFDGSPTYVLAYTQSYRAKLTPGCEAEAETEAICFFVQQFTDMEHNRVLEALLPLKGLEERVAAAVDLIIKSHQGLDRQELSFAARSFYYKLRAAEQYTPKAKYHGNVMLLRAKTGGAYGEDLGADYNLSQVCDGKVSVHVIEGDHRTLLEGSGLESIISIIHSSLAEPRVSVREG
Cytochrome P450 2C9, sequence (P11712 whole entry, the tested form may be a part): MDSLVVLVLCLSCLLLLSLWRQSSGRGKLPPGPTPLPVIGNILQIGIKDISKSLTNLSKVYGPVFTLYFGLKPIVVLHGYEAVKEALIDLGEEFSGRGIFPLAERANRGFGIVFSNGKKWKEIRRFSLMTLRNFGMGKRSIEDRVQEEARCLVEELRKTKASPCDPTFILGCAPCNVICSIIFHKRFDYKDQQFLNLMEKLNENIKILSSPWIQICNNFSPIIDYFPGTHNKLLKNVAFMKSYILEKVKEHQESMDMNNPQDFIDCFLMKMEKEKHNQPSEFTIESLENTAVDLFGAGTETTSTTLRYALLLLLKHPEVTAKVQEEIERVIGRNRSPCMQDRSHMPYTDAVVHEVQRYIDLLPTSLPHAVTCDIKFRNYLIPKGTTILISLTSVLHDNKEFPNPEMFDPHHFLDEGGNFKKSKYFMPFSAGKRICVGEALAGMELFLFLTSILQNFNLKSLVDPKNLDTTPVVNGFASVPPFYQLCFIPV
T1 sequence (P08684 whole entry): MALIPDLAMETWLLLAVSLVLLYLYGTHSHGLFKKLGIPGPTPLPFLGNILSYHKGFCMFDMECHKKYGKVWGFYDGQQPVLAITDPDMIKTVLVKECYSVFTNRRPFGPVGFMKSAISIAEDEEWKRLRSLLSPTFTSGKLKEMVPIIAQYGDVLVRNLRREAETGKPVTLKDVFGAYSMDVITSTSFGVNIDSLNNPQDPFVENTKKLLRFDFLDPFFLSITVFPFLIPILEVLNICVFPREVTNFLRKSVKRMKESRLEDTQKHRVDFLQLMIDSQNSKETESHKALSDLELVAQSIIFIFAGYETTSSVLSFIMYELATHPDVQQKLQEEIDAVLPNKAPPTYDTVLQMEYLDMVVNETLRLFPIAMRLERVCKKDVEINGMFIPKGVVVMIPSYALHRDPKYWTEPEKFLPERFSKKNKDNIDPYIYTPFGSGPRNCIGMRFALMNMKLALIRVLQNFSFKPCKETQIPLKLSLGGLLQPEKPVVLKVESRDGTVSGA
Induced myeloid leukemia cell differentiation protein Mcl-1, sequence (Q07820 whole entry): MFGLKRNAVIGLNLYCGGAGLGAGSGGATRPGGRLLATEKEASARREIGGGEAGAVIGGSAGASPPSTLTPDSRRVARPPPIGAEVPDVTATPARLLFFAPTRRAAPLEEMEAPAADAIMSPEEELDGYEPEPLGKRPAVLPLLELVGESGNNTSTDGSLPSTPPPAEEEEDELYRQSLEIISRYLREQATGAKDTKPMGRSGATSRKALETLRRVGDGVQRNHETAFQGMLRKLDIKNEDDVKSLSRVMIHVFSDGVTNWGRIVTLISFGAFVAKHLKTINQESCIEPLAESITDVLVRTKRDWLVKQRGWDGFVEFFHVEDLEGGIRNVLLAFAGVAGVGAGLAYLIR
Cytochrome P450 2C19, sequence (P33261 whole entry): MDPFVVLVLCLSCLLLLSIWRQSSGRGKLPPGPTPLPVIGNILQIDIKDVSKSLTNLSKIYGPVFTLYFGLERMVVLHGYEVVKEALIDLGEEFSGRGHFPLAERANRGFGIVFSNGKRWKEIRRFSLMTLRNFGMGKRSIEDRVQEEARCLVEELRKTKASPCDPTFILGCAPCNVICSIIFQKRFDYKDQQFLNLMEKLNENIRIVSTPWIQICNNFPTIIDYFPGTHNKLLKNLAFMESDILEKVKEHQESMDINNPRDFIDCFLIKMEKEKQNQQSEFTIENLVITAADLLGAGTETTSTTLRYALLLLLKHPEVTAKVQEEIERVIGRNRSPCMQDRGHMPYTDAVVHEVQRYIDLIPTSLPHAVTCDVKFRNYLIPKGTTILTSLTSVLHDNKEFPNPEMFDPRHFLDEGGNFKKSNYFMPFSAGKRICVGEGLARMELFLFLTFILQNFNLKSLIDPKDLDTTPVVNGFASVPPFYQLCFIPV
Nonstructural protein 1, sequence (Q194T2 whole entry): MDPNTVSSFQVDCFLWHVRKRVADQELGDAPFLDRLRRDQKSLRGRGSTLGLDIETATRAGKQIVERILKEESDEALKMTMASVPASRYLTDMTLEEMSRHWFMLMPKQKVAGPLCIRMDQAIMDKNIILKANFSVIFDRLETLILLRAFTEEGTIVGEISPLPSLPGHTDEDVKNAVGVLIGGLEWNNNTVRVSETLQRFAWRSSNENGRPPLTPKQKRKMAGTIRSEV

## C=C[C@H]1CN2CC[C@H]1C[C@H]2c1[nH]c2ccccc2c1CCO [CINCHONAMINE]
Cytochrome P450 3A4 [1]
  AC50: 31.6 µM (inconclusive)

## COc1ccc2cc(C(=O)Nc3ccc(F)cc3)sc(=O)c2c1OC
Cytochrome P450 2C9
  AC50: inconclusive
[2]
  IC50: 6.77 µM (active)

## Cc1cc(C(=O)N/N=C/c2cc([N+](=O)[O-])ccc2O)c2ccccc2n1
Fatty acid synthase [3]
  IC50: 2.75 µM (active)
Nonstructural protein 1
  IC50: 5.29 µM (active)
Fatty acid synthase [4]
  IC50: 3.18 µM (active)

## C[C@H]1CN([C@@H](C)CO)C(=O)c2c(c3ccccc3n2C)-c2ccccc2CO[C@H]1CN(C)S(=O)(=O)c1ccc(C(F)(F)F)cc1
[5]
  AC50: < 300 nM (active)
[6]
  AC50: 32.1 µM (active)
[7]
  AC50: 216 nM (active)
Paired box protein Pax-8
  AC50: 3.69 µM (active)
[8]
  AC50: 230 nM (active)
[9]
  AC50: 50.8 µM (active)
[10]
  AC50: 251 nM (active)

## CCN(CC)c1ccc(NC2=C(Cl)C(=O)c3ccccc3C2=O)cc1
[11]
  EC50: 1 µM (active)
[12]
  CC50: 4.24 µM (active)
[13]
  IC50: 1.47 µM (active)

## Cn1nc(C(=O)NCCCN2CCCCC2)c2c1-c1ccccc1S(=O)(=O)C2
Cells [14]
  EC50: > 350 µM (not active)
Cells [15]
  EC50: > 350 µM (not active)

## O=C(CCC(=O)c1cccs1)Nc1nnc(C2CC2)s1
Estrogen receptor
  IC50: > 50 µM (not active)

## Cn1c(=O)c2nc(COc3ccc(C(C)(C)C)cc3)[nH]c2n(C)c1=O
Fatty acid synthase [3]
  IC50: 6.26 µM (active)
Fatty acid synthase [4]
  IC50: 4.28 µM (active)

## C=CCC1(C)OC=Cc2nc3cc(Cl)c(Cl)cc3nc21 (stereo not drawn)
Cytochrome P450 3A4 [1]
  AC50: 3.98 µM (inconclusive)

## CCO/C(O)=C/c1nc2ccccc2sc1=O
[16]
  AC50: 5.7 µM (active)
[17]
  AC50: 5.57 µM (active)
[18]
  AC50: 5060 nM (active)
[19]
  AC50: 3 µM (active)

## O=C(O)c1ccc(-c2noc(-c3ccccc3Cl)n2)cc1
[20]
  AC50: 32.9 µM (active)
[21]
  AC50: 28.3 µM (active)

## CCCn1c(C)nc2c(Nc3ccccc3)nc(C)nc21
Cytochrome P450 3A4 [1]
  AC50: 31.6 µM (inconclusive)

## O=C(Nc1cccn2ncnc12)c1ccc(Cl)cc1Cl
Cytochrome P450 2C19
  AC50: 11.2 µM (inconclusive)
Cytochrome P450 2C9
  AC50: inconclusive

## Oc1ccc(Cn2cc[nH]c2=S)cc1
Cytochrome P450 3A4 [22]
  AC50: 15.8 µM (inconclusive)
Cytochrome P450 2C9
  AC50: inconclusive
Cytochrome P450 1A2
  AC50: 6.31 µM (inconclusive)

## CCC(C)NC(=O)CSc1ccc(S(=O)(=O)N2CCN(Cc3ccccc3)CC2)cn1 (stereo not drawn)
[12]
  CC50: > 40 µM (active)

## CCOC(=O)C1=CC[C@H]2c3c(c4ccccc4n3C)C(=O)C1N2C(=O)OC(C)(C)C
Fatty acid synthase [3]
  IC50: 11.9 µM (active)
Fatty acid synthase [4]
  IC50: 10.8 µM (active)

## CNC(=O)/C(=C\C=C\c1ccccc1)NC(=O)c1ccc([N+](=O)[O-])cc1
Fatty acid synthase [3]
  IC50: 0.809 µM (active)
Fatty acid synthase [4]
  IC50: 0.786 µM (active)

## Cc1cc(C)cc(NC(=O)c2cccc(NC(=O)c3ccco3)c2)c1
Cells [14]
  EC50: 34.9 µM (active)
Cells [15]
  EC50: > 350 µM (not active)

## CCCCN1CC(=O)N2[C@H]3c4ccccc4OC[C@@H]3[C@H](c3ccccc3)[C@]2(C)C1=O
[16]
  AC50: 3.64 µM (active)
[17]
  AC50: 4.48 µM (active)
[18]
  AC50: 448 nM (active)
[19]
  AC50: 29.7 µM (active)

## CCN(CC)S(=O)(=O)c1ccc(/C=C/C(=O)Nc2ccc(N3CCOCC3)cc2)cc1
[12]
  CC50: > 40 µM (active)

## COc1ccc(-c2cc([N+](=O)[O-])ccc2OCC(=O)N(C)CC(=O)Nc2ccc(C)cc2)cc1
Fatty acid synthase [3]
  IC50: 7.78 µM (active)
Fatty acid synthase [4]
  IC50: 7.56 µM (active)

## Cc1cc(NS(=O)(=O)c2ccc(NC(=O)C(C)Oc3ccc4c(C)cc(=O)oc4c3)cc2)no1 (stereo not drawn)
[23]
  EC50: > 50 µM (active)

## Clc1cccc(CN2C3=NCCCN3c3ccccc32)c1
[23]
  EC50: > 50 µM (active)

## C=CCN(c1ccccc1)S(=O)(=O)c1cccc(C(=O)Nc2ncccc2O)c1
Cells [14]
  EC50: > 350 µM (not active)
Cells [15]
  EC50: > 350 µM (not active)

## CC[C@@]1(C(=O)OC)N[C@H](CN(C)C(=O)Nc2ccc(F)cc2)[C@@H]2C(=O)N(Cc3ccccc3)C(=O)[C@@H]21
[16]
  AC50: 0.401 µM (active)
[17]
  AC50: 0.744 µM (active)
[18]
  AC50: 378 nM (active)
[19]
  AC50: 0.614 µM (active)

## Cn1c(CN2CCCC2)nc2cc(NC(=O)COc3ccc(Cl)cc3)ccc21
[23]
  EC50: > 50 µM (active)

## O=C(CC(=O)NCc1ccccc1)NCc1ccccc1
[23]
  EC50: > 50 µM (active)

## O=C(Nc1ccc2oc(-c3ccccc3F)nc2c1)c1cncc(Br)c1
Estrogen receptor
  IC50: 15.5 µM (active)

## CC1(C)CC2C1CCC1(C)OC1CCC2(C)O (stereo not drawn) [2-HYDROXY-5 (6)EPOXY-TETRAHYDROCARYOPHYLLENE]
Cytochrome P450 3A4 [1]
  AC50: 25.1 µM (inconclusive)

## Nc1nnc(CC(=O)N/N=C/c2cccc([N+](=O)[O-])c2)s1
Cytochrome P450 2C9
  AC50: inconclusive
Cytochrome P450 1A2
  AC50: 31.6 µM (inconclusive)

## O=C(CCCCCN1C(=O)c2ccccc2C1=O)Nc1ccc2c(c1)OCCO2
Cells [14]
  EC50: > 350 µM (not active)
Cells [15]
  EC50: > 350 µM (not active)

## CC(C)CC#Cc1ccc2c(c1)O[C@H](CN(C)Cc1ccc(F)cc1)[C@H](C)CN([C@H](C)CO)S2(=O)=O
Paired box protein Pax-8
  AC50: 23.1 µM (active)
[9]
  AC50: 61.2 µM (active)

## C[C@H]1CCCCO[C@H](CN(C)C(=O)Nc2ccc(F)cc2)[C@@H](C)CN([C@@H](C)CO)C(=O)c2cc(NC(=O)Nc3ccc(C(F)(F)F)cc3)ccc2O1
Paired box protein Pax-8
  AC50: 8.09 µM (active)
[9]
  AC50: 58.3 µM (active)
